Assay results: US12171229B2, “Heteroaryl-triazole and heteroaryl-tetrazole compounds as pesticides” (BAYER AKTIENGESELLSCHAFT, priority 2018, dated 2024)

System: Phaedon cochleariae
Test: Phaedon cochleariae spray test
Assay type: in vivo
Conditions: foliar, 168 h, after 7 days, larvae on Chinese cabbage leaf disks
Procedure: Phaedon Cochleariae—Spray Test
To produce a suitable preparation of active compound, 1 part by weight of active compound is mixed with the stated amount of solvents and is diluted with water, containing an emulsifier concentration of 1000 ppm, to the desired concentration. Further test concentrations are prepared by dilution with emulsifier containing water.
Chinese cabbage (Brassica pekinensis) leaf disks are sprayed with a preparation of the active ingredient of the desired concentration. Once dry, the leaf disks are infested with mustard beetle larvae (Phaedon cochleariae).
After 7 days mortality in % is determined. 100% means all beetle larvae have been killed and 0% means none of the beetle larvae have been killed.

CC(c1ncnn1-c1ccc(C#N)cn1)N(CC1CC1)C(=O)c1cc(Cl)cc(C(F)(F)F)c1 (stereo not shown) [Example I-007]
mortality at 500 g/ha: 100%
